Tests used:
NA transporter = assay: Inhibition of noradrenalin uptake in synaptosomes; format: biochemical
5-HT transporter = biological target: T1, 5-HT transporter (Rattus norvegicus, UniProt P31652); assay: Inhibition of 5-HT uptake in synaptosomes; format: biochemical
T1 construct: from tissue; host or cells: rat brain synaptosomes (marrow/medulla and pons), P2 fraction

[1] = tested on: batrachotoxin (BTX) binding site of the sodium channel; assay: Affinity to the batrachotoxin (BTX) binding site of the sodium channel; conditions: rat cerebrocortex synaptosomes, [3H]-batrachotoxinin A20 α-benzoate 10 nM; test concentration not given

T1 sequence (P31652 whole entry): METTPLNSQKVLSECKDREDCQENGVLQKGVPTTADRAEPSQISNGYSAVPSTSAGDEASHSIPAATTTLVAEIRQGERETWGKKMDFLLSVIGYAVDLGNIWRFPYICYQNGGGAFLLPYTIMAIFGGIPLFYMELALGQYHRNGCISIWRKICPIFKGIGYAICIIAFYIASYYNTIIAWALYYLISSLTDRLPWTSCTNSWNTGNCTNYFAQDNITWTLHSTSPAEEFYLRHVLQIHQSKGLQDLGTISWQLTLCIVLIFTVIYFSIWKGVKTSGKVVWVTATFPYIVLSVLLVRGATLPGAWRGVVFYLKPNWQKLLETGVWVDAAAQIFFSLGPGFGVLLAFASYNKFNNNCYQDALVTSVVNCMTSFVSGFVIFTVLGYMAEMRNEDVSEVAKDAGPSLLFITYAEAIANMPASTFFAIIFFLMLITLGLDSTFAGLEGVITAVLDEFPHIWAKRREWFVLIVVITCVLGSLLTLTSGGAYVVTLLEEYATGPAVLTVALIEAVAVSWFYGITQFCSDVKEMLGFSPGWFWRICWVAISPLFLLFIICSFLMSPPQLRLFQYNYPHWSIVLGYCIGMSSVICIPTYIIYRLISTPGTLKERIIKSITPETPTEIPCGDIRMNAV

Compound	Uptake (NA), rat, 10 μM, % inhibition (NA transporter) [%]	inhibition at 1 µM (5-HT transporter; read-out: Uptake_5-HT, rat, 1 μM, % inhibition) [%]	BTX Inhibition [1]	Uptake_5-HT, rat, 1 μM, % inhibition (5-HT transporter) [%]
CN(C)S(=O)(=O)N1CCC2(CC1)NCC(=O)N2Cc1ccccc1 [Example 9, 1-Benzyl-2-oxo-1,4,8-triazaspiro[4,5]decan-8-sulfonic acid dimethylamide]	40			
CC(C)C1NC2(CCN(C(=S)Nc3ccccc3)CC2)N(Cc2ccccc2)C1=O (stereo not drawn) [Example 156, 1-Benzyl-3-isopropyl-2-oxo-1,4,8-triazaspiro[4,5]decan-8-thiocarboxylic acid benzolamide]	33			
C=CCN1C(=O)C(C(C)C)NC12CCN(C(=S)NCc1ccc(F)cc1)CC2 (stereo not drawn) [Example 162, 1-Allyl-3-isopropyl-2-oxo-1,4,8-triazaspiro[4,5]decan-8-thiocarboxylic acid 4-fluorobenzylamide]	26			
CCOC(=O)NC(=S)N1CCC2(CC1)NC(C(C)C)C(=O)N2Cc1ccc(C(=O)OC)cc1 (stereo not drawn) [Example 167, Methyl 4-(8-ethoxycarbonylaminocarbothioyl-3-isopropyl-2-oxo-1,4,8-triazaspiro[4,5]dec-1-ylmethyl)benzoate]	42			
COC(=O)c1ccc(CN2C(=O)C(C(C)C)NC23CCN(C(=O)NC2CCCCC2)CC3)cc1 (stereo not drawn) [Example 206, Methyl 4-(8-cyclohexylcarbamoyl-3-isopropyl-2-oxo-1,4,8-triazaspiro[4,5]dec-1-ylmethyl)benzoate]	39			
COC(=O)c1ccc(CN2C(=O)C(C(C)C)NC23CCN(C(=O)Nc2cccc(OC)c2)CC3)cc1 (stereo not drawn) [Example 223, Methyl 4-[3-isopropyl-8-(3-methoxy-benzolcarbamoyl)-2-oxo-1,4,8-triazaspiro[4,5]dec-1-ylmethyl]-benzoate]	31			
CSCCC1NC2(CCN(C(=O)NCCc3ccccc3)CC2)N(Cc2ccc(F)cc2)C1=O (stereo not drawn) [Example 239, 1-(4-Fluorobenzyl)-3-(2-methylsulfanylethyl)-2-oxo-1,4,8-triazaspiro[4,5]decan-8-carboxylic acid phenethylamide]		36	69	
CSCCC1NC2(CCN(C(=O)Nc3cccc(F)c3)CC2)N(Cc2ccc3ccccc3c2)C1=O (stereo not drawn) [Example 240, 3-(2-Methylsulfanylethyl)-1-naphthalin-2-ylmethyl-2-oxo-1,4,8-triazaspiro[4,5]decan-8-carboxylic acid (3-fluorobenzol)amide]			78	63
COC(=O)c1ccc(CN2C(=O)C(C(C)C)NC23CCN(C(=O)Nc2ccc(Cl)c(C(F)(F)F)c2)CC3)cc1 (stereo not drawn) [Example 241, Methyl 4-[8-(4-chloro-3-trifluoromethylbenzolcarbamoyl)-3-isopropyl-2-oxo-1,4,8-triazaspiro[4,5]dec-1-ylmethyl]-benzoate]			78	31
COc1ccc(OC)c(NC(=O)N2CCC3(CC2)NC(CCSC)C(=O)N3Cc2cccc(C#N)c2)c1 (stereo not drawn) [Example 242, 1-(3-Cyanobenzyl)-3-(2-methylsulfanylethyl)-2-oxo-1,4,8-triazaspiro[4,5]decan-8-carboxylic acid (2,5-dimethoxy-benzol)amide]			46	30
CCOc1ccc(NC(=O)N2CCC3(CC2)NC(CCSC)C(=O)N3Cc2ccc(F)cc2)cc1 (stereo not drawn) [Example 243, 1-(4-Fluorobenzyl)-3-(2-methylsulfanylethyl)-2-oxo-1,4,8-triazaspiro[4,5]decan-8-carboxylic acid (4-ethoxy-benzol)amide]			48	40
Ethyl[3-b-8-(3-fluorobenzolcarbamoyl)-2-oxo-1,4,8-triazaspiro[4,5]dec-1-yl]-acetate [Example 245]			31	51
